# Results: US20210299079A1, “MONOMETHYL FUMARATE-CARRIER CONJUGATES AND METHODS OF THEIR USE” (Flagship Pioneering Innovations V, Inc., priority 2018, published 2021)
# How the values were obtained:
# IL-8 = assay: Neutrophil Chemokine Production Assay: IL-8; type: cell-based; conditions: human neutrophils, 12 h
# In short: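 Neutrophils were isolated from human blood by Histopaque-1077 separation and RBC lysis, then plated at 2.0×10^5 cells/well in RPMI complete. Cells were stimulated with LPS (10 μL of a 2 μg/mL solution) for 12 h at 37 °C. Supernatant chemokines were measured by Luminex multiplex, averaging three data points from two donors.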
# AhR = target: T1, AhR (Homo sapiens, UniProt P35869); assay: AhR Activation in Caco-2 Cells Through CYP1A1 mRNA Expression; conditions: overnight
# T1 sequence (P35869 11-848): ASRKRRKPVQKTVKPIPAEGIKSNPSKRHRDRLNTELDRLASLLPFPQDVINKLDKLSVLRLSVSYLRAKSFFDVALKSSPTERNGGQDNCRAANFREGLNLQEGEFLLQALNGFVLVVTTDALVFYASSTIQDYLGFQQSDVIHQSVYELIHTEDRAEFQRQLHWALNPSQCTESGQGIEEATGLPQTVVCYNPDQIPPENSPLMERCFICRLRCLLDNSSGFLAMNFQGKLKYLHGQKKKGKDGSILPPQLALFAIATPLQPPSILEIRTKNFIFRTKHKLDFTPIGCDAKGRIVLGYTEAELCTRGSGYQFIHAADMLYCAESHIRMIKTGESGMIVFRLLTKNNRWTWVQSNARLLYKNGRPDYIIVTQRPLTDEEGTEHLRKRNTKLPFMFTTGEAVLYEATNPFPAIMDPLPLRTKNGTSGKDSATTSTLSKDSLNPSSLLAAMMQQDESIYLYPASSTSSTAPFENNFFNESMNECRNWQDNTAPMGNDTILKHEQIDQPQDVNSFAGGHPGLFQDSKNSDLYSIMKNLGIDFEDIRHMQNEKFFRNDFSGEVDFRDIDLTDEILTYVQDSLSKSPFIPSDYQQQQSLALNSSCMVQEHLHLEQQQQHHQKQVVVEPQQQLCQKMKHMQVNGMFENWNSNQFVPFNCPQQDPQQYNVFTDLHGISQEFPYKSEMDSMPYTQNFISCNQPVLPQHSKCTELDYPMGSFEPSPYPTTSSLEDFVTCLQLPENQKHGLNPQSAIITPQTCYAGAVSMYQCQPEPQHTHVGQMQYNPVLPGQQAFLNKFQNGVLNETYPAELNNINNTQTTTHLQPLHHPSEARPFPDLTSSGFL
# Protocol: Caco-2 cells from American Type Culture Collection (ATCC) were plated in a sterile tissue culture treated 96-well plate (ThermoFisher) at 8.0×10^5 cells per well, and grown overnight at 37° C., 5% CO2 in DMEM complete (Gibco) in order to achieve confluence. After the incubation medium was aspirated off of the Caco-2 monolayers, tissues were then washed with 200 μL of warmed PBS solution, and subsequently 190 μL of pre-warmed growth medium was added to each well. Compounds of interest were diluted at a 20× concentration in growth medium containing 2% DMSO, and 10 μL of compound solutions were added to respective wells in triplicate. Compounds where incubated overnight at 37° C., 5% CO2. 2-(1′H-indole-3′-carbonyl)-thiazole-4-carboxylic acid methyl ester (ITE) was used as the positive control for AhR activation at 1 and 100 μM concentrations. At the end of the incubation, medium was aspirated off of the Caco-2 cells, and washed with 100 μL of cold PBS solution. RNA was extracted via the TaqMan™ Gene Expression Cells-to-CT™ Kit (ThermoFisher) according to the manufacturer's protocol. The QuantStudio 6 Flex (Applied Biosciences) was used to analyze mRNA levels of CYP1A1 using GAPDH as the endogenous control. TaqMan™ probe sets for both genes were acquired from ThermoFisher. Samples were run in triplicate and data was analyzed using the QuantStudio software and reported as linear (Table 6) and log 2(ΔΔCT) values. Statistical analysis was performed using a two-tailed t-test comparing CYP1A1 levels in the presence of each individual compound to the vehicle negative control.
# TNFα = assay: Cytokine Release from Human PBMCs: TNFα; type: cell-based; conditions: LPS, 24 hours, Concentration 100 μM
# Protocol: Human donor blood (8 mL) was collected in sodium citrate CPT tubes and centrifuged at 1,600×g for 20 minutes at room temperature. Buffy coat containing PBMCs was collected and transferred to a 50 mL conical tube containing 30 mL of RPMI-1640 medium at room temperature (supplemented with penicillin-streptomycin). PBMCs samples were centrifuged at 400×g for 10 minutes at 10° C. The pelleted PBMCs were washed twice in 10 ml of RPMI-1640 medium (supplemented with penicillin-streptomycin), then resuspended in RPMI-1640 medium (supplemented with penicillin-streptomycin, fetal bovine serum, and L-Glutamine). PBMCs were filtered through a 70 micron mesh to remove any cellular debris. […] PBMCs in a 96-well plate were rested for 30 minutes in a 37° C., 5% CO2 incubator, then subsequently treated with 10 μI of indicated compound. After 2 hours 10 μL of LPS (0111:64) 1 mg/mL was added to test wells. After 24 hours of incubation at 37° C., 5% CO2, 100 μL of cell supernatant was collected and transferred to a 96-well plate (non-tissue treated, flat bottom). The plate was centrifuged at 350×g for 5 minutes at room temperature, and then the clear supernatant transferred to a new 96-well plate (non-tissue treated, flat bottom). The remaining cells were tested for viability using CellTiter-Glo® Luminescent Cell Viability Assay (Promega). The supernatant was analyzed for TNFα, IL-6 and IL-1β (kit […] Systems), using Luminex Immunoassay Technology (MAGPIX System).
smiles,measurement,setting,value
CCC(=O)O [propionate],% IL-8 (Vehicle + LPS = 100%),IL-8; Conc. 500.0 μM,− (− = >90% Vehicle)
same,% IL-8 (Vehicle + LPS = 100%),IL-8; Conc. 1000.0 μM,++ (++ = <70% Vehicle)
same,% IL-8 (Vehicle + LPS = 100%),IL-8; Conc. 3000.0 μM,+++ (+++ = <50% Vehicle)
same,Average CYP1A1 mRNA levels,AhR; Conc. 1000.0 μM,− (− = <2-fold Vehicle)
same,Average CYP1A1 mRNA levels,AhR; Conc. 3000.0 μM,− (− = <2-fold Vehicle)
same,TNFα % of DMSO control,TNFα,+ ((+) 50% > <90% DMSO)
